Data taken from paper PMC11702666, “The anti-COVID-19 drug Paxlovid crosses biological barriers of the placenta and brain in rats” (npj Viruses, 2024).
“Also recorded” adds a separate entry of the source. Like-named read-outs stand apart in the source and are kept apart here.

Legend:
[1] = in vivo; conditions: female, Sprague-Dawley, rat, iv, 15 mg/kg; for AUC(0-t): AUClast; for AUC(0-t) / clearance / Cmax / MRT / Tmax / half-life: nonpregnant female rats; for clearance: CL (clearance); for MRT: MRT (mean residence time); for half-life: t1/2 (elimination half-life)
[2] = for Autosampler stability: 4°C for 6 hours; for Long-term stability: -20°C for 1 month; for Bench-top stability: room temperature for 6 hours; for Freeze‒thaw stability: three cycles
[3] = for nirmatrelvir concentration in dialysate sample: 60 min after nirmatrelvir 15 mg/kg i.v., representative sample
[4] = test system: zebrafish embryo; conditions: zebrafish embryo model; therapeutic doses in humans; cited from earlier work
[5] = in vivo; conditions: female, Sprague-Dawley, rat, iv, pregnant rats; for AUC(0-t): AUClast; for Kp: AUCtissue/AUCblood (maternal blood-to-tissue transfer ratio); for clearance: CL (clearance); for MRT: MRT (mean residence time); for half-life: t1/2 (elimination half-life)
[6] = for nirmatrelvir concentration in dialysate sample: 60 min after nirmatrelvir 15 mg/kg i.v., representative sample; remark: listed apart in the source
[7] = test system: SARS-CoV-2; design: method as in PMID 34726479; conditions: 90% inhibition of viral replication, cited from earlier work
[8] = PBPK model LeiCNS-PK3.0; recommended dosing regimen; cited from earlier work
[9] = in vivo; conditions: male, Sprague-Dawley, rat, iv, 15 mg/kg; for AUC(0-t): AUClast; for AUC(0-t) / clearance / Cmax / MRT / Tmax / half-life: male rats; for clearance: CL (clearance); for MRT: MRT (mean residence time); for half-life: t1/2 (elimination half-life)
[10] = oral; cited from earlier work
[11] = blood, nirmatrelvir 15 mg/kg i.v. alone
[12] = blood, nirmatrelvir 15 mg/kg i.v. plus ritonavir 7 mg/kg i.v.
[13] = brain, nirmatrelvir 15 mg/kg i.v. alone
[14] = brain, nirmatrelvir 15 mg/kg i.v. plus ritonavir 7 mg/kg i.v.
[15] = amniotic fluid dialysate, 5 ng/mL
[16] = amniotic fluid dialysate, 250 ng/mL
[17] = male rat blood dialysate, 5 ng/mL
[18] = male rat blood dialysate, 250 ng/mL
[19] = male rat brain dialysate, 5 ng/mL
[20] = male rat brain dialysate, 250 ng/mL
[21] = pregnant rat maternal blood dialysate, 5 ng/mL
[22] = pregnant rat maternal blood dialysate, 250 ng/mL
[23] = 15 mg/kg, amniotic fluid, nirmatrelvir 15 mg/kg i.v. alone
[24] = 15 mg/kg, amniotic fluid, nirmatrelvir 15 mg/kg i.v. plus ritonavir 7 mg/kg i.v.
[25] = 15 mg/kg, fetus, nirmatrelvir 15 mg/kg i.v. alone
[26] = 15 mg/kg, fetus, nirmatrelvir 15 mg/kg i.v. plus ritonavir 7 mg/kg i.v.
[27] = 15 mg/kg, maternal blood, nirmatrelvir 15 mg/kg i.v. alone
[28] = 15 mg/kg, maternal blood, nirmatrelvir 15 mg/kg i.v. plus ritonavir 7 mg/kg i.v.
[29] = 15 mg/kg, placenta, nirmatrelvir 15 mg/kg i.v. alone
[30] = 15 mg/kg, placenta, nirmatrelvir 15 mg/kg i.v. plus ritonavir 7 mg/kg i.v.

SMILES: CC(C)(C)[C@H](NC(=O)C(F)(F)F)C(=O)N1C[C@H]2[C@@H]([C@H]1C(=O)N[C@H](C#N)C[C@@H]1CCNC1=O)C2(C)C [Nirmatrelvir]
- Kp [1]: 0.21 ± 0.04
- AUC(0-t) [1, 11]: 16800 ng·h/mL
- AUC(0-t) [1, 12]: 69400 ng·h/mL
- AUC(0-t) [1, 13]: 3120 ng·h/mL
- AUC(0-t) [1, 14]: 5280 ng·h/mL
- clearance [1, 11]: 16 ± 2.02 mL/min/kg
- clearance [1, 12]: 3.73 ± 0.29 mL/min/kg
- Cmax [1, 11]: 35600 ± 2110 ng/mL
- Cmax [1, 12]: 107000 ± 7400 ng/mL
- Cmax [1, 13]: 2420 ± 460 ng/mL
- Cmax [1, 14]: 2330 ± 390 ng/mL
- MRT [1, 11]: 0.667 h
- MRT [1, 12]: 1.32 h
- MRT [1, 13]: 1.55 h
- MRT [1, 14]: 2.2 h
- Tmax [1, 13]: 0.333 h
- Tmax [1, 14]: 0.6 h
- half-life [1, 11]: 0.333 ± 0.0333 h
- half-life [1, 12]: 0.417 ± 0.0167 h
- half-life [1, 13]: 1.08 ± 0.117 h
- half-life [1, 14]: 1.07 ± 0.2 h
- Autosampler stability [2, 15]: 101.84 ± 1.89%
- Long-term stability [2, 15]: 97.21 ± 0.39%
- Bench-top stability [2, 15]: 104.82 ± 1.50%
- Freeze‒thaw stability [2, 15]: 107.43 ± 5.37%
- Autosampler stability [2, 16]: 102.44 ± 2.35%
- Long-term stability [2, 16]: 93.43 ± 1.54%
- Bench-top stability [2, 16]: 98.60 ± 1.46%
- Freeze‒thaw stability [2, 16]: 99.39 ± 4.32%
- Autosampler stability ([2]; fetus dialysate, 5 ng/mL): 95.10 ± 0.47%
- Long-term stability ([2]; fetus dialysate, 5 ng/mL): 95.20 ± 1.21%
- Bench-top stability ([2]; fetus dialysate, 5 ng/mL): 102.37 ± 2.51%
- Freeze‒thaw stability ([2]; fetus dialysate, 5 ng/mL): 107.56 ± 0.63%
- Autosampler stability ([2]; fetus dialysate, 250 ng/mL): 97.12 ± 1.94%
- Long-term stability ([2]; fetus dialysate, 250 ng/mL): 91.79 ± 1.56%
- Bench-top stability ([2]; fetus dialysate, 250 ng/mL): 101.02 ± 0.48%
- Freeze‒thaw stability ([2]; fetus dialysate, 250 ng/mL): 98.02 ± 2.49%
- Autosampler stability [2, 17]: 95.56 ± 6.20%
- Long-term stability [2, 17]: 89.61 ± 1.00%
- Bench-top stability [2, 17]: 104.5 ± 1.73%
- Freeze‒thaw stability [2, 17]: 100.3 ± 3.40%
- Autosampler stability [2, 18]: 94.23 ± 4.18%
- Long-term stability [2, 18]: 88.54 ± 1.07%
- Bench-top stability [2, 18]: 97.60 ± 0.73%
- Freeze‒thaw stability [2, 18]: 88.57 ± 0.33%
- Autosampler stability [2, 19]: 92.51 ± 2.01%
- Long-term stability [2, 19]: 90.07 ± 2.77%
- Bench-top stability [2, 19]: 100.6 ± 0.37%
- Freeze‒thaw stability [2, 19]: 99.58 ± 1.02%
- Autosampler stability [2, 20]: 93.59 ± 4.41%
- Long-term stability [2, 20]: 87.36 ± 2.58%
- Bench-top stability [2, 20]: 95.79 ± 0.24%
- Freeze‒thaw stability [2, 20]: 92.01 ± 0.29%
- Autosampler stability ([2]; placenta dialysate, 5 ng/mL): 101.55 ± 6.56%
- Long-term stability ([2]; placenta dialysate, 5 ng/mL): 97.38 ± 0.55%
- Bench-top stability ([2]; placenta dialysate, 5 ng/mL): 100.37 ± 1.24%
- Freeze‒thaw stability ([2]; placenta dialysate, 5 ng/mL): 101.85 ± 4.27%
- Autosampler stability ([2]; placenta dialysate, 250 ng/mL): 98.14 ± 3.84%
- Long-term stability ([2]; placenta dialysate, 250 ng/mL): 88.97 ± 1.33%
- Bench-top stability ([2]; placenta dialysate, 250 ng/mL): 98.87 ± 0.27%
- Freeze‒thaw stability ([2]; placenta dialysate, 250 ng/mL): 100.83 ± 0.95%
- Autosampler stability [2, 21]: 102.98 ± 4.81%
- Long-term stability [2, 21]: 87.18 ± 0.87%
- Bench-top stability [2, 21]: 96.42 ± 2.53%
- Freeze‒thaw stability [2, 21]: 101.21 ± 2.66%
- Autosampler stability [2, 22]: 98.97 ± 4.80%
- Long-term stability [2, 22]: 87.65 ± 1.83%
- Bench-top stability [2, 22]: 98.68 ± 1.18%
- Freeze‒thaw stability [2, 22]: 105.98 ± 2.99%
- nirmatrelvir concentration in dialysate sample ([3]; amniotic fluid dialysate): 27.61 ng/mL
- nirmatrelvir concentration in dialysate sample ([3]; fetus dialysate): 37 ng/mL
- nirmatrelvir concentration in dialysate sample ([3]; maternal blood dialysate): 344.8 ng/mL
- nirmatrelvir concentration in dialysate sample ([3]; placenta dialysate): 95.13 ng/mL
- nirmatrelvir level in conceptus (fetus, placenta, amniotic fluid) versus EC90 ([3]; pregnant rats, regular dose of Paxlovid): higher than the EC90
- survival rates and morphological defects [4]: does not affect survival rates or induce morphological defects; also recorded: did not affect survival rates or induce morphological defects
- increase of Cmax in blood, combined vs alone (nonpregnant female rats, blood, coadministration with ritonavir vs nirmatrelvir alone): threefold
- protein unbound nirmatrelvir concentrations in blood and brain versus EC90 (nonpregnant rats): all higher than the EC90
- AUC(0-t) [5, 23]: 4740 ng·h/mL
- AUC(0-t) [5, 24]: 17200 ng·h/mL
- AUC(0-t) [5, 25]: 2830 ng·h/mL
- AUC(0-t) [5, 26]: 5720 ng·h/mL
- AUC(0-t) [5, 27]: 52200 ng·h/mL
- AUC(0-t) [5, 28]: 120000 ng·h/mL
- AUC(0-t) [5, 29]: 8010 ng·h/mL
- AUC(0-t) [5, 30]: 18000 ng·h/mL
- Kp [5, 23]: 0.12 ± 0.03
- Kp [5, 25]: 0.06 ± 0.01
- Kp [5, 29]: 0.15 ± 0.03
- clearance [5, 27]: 5 ± 0.4 mL/min/kg
- clearance [5, 28]: 2.14 ± 0.15 mL/min/kg
- Cmax [5, 23]: 1840 ± 490 ng/mL
- Cmax [5, 24]: 6590 ± 1840 ng/mL
- Cmax [5, 25]: 960 ± 190 ng/mL
- Cmax [5, 26]: 1720 ± 600 ng/mL
- Cmax [5, 27]: 156000 ± 24000 ng/mL
- Cmax [5, 28]: 171000 ± 52300 ng/mL
- Cmax [5, 29]: 3560 ± 320 ng/mL
- Cmax [5, 30]: 4400 ± 820 ng/mL
- MRT [5, 23]: 4.83 h
- MRT [5, 24]: 7.62 h
- MRT [5, 25]: 5.13 h
- MRT [5, 26]: 21.1 h
- MRT [5, 27]: 0.8 h
- MRT [5, 28]: 3.22 h
- MRT [5, 29]: 2.53 h
- MRT [5, 30]: 6.92 h
- Tmax [5, 23]: 1.05 h
- Tmax [5, 24]: 3.6 h
- Tmax [5, 25]: 1.17 h
- Tmax [5, 26]: 3.93 h
- Tmax [5, 29]: 0.667 h
- Tmax [5, 30]: 2.2 h
- half-life [5, 23]: 2.78 ± 0.683 h
- half-life [5, 24]: 4.02 ± 1.75 h
- half-life [5, 25]: 3.03 ± 1 h
- half-life [5, 26]: 13.7 ± 9.1 h
- half-life [5, 27]: 0.25 ± 0.0167 h
- half-life [5, 28]: 0.667 ± 0.117 h
- half-life [5, 30]: 4.27 ± 0.65 h
- Kp ([5]; amniotic fluid, nirmatrelvir 15 mg/kg i.v. plus ritonavir 7 mg/kg i.v.): 0.2 ± 0.07
- Kp ([5]; fetus, nirmatrelvir 15 mg/kg i.v. plus ritonavir 7 mg/kg i.v.): 0.06 ± 0.02
- Kp ([5]; placenta, nirmatrelvir 15 mg/kg i.v. plus ritonavir 7 mg/kg i.v.): 0.13 ± 0.02
- nirmatrelvir concentration in dialysate sample ([6]; blood dialysate): 78.01 ng/mL
- nirmatrelvir concentration in dialysate sample ([6]; brain dialysate): 36.36 ng/mL
- protein unbound nirmatrelvir concentrations in blood and brain versus EC90 ([6]; male rats): all higher than the EC90
- unbound EC90 [7]: 0.0905 µg/mL
- EC90 ([7]; unbound): 181 nM
- predicted brain penetration / effective concentrations against SARS-CoV-2 [8]: achieves effective concentrations against SARS-CoV-2 in human brain cells
- Kp [9]: 0.26 ± 0.03
- AUC(0-t) [9, 11]: 12900 ng·h/mL
- AUC(0-t) [9, 12]: 80500 ng·h/mL
- AUC(0-t) [9, 13]: 3540 ng·h/mL
- AUC(0-t) [9, 14]: 5190 ng·h/mL
- clearance [9, 11]: 21 ± 2.8 mL/min/kg
- clearance [9, 12]: 3.16 ± 0.18 mL/min/kg
- Cmax [9, 11]: 26500 ± 4450 ng/mL
- Cmax [9, 12]: 94500 ± 27600 ng/mL
- Cmax [9, 13]: 2520 ± 320 ng/mL
- Cmax [9, 14]: 2020 ± 350 ng/mL
- MRT [9, 11]: 0.717 h
- MRT [9, 12]: 2.32 h
- MRT [9, 13]: 1.53 h
- MRT [9, 14]: 3.4 h
- Tmax [9, 13]: 0.333 h
- Tmax [9, 14]: 0.45 h
- half-life [9, 12]: 0.833 ± 0.15 h
- half-life [9, 13]: 1.1 ± 0.117 h
- half-life [9, 14]: 2.05 ± 0.367 h
- bioavailability [10]: approximately 50%
